Entries after “also recorded” stand apart in the source; their conditions may differ. Where a SMILES comes first, the peptide text is derived from it. The star is where a group is joined. Myristoyl = CCCCCCCCCCCCCC(=O)*
Tests used:
PD-L1 [1] = assay: Immunofluorescence of PD-L1 in MDA-MB-231 cells, Example 14; format: cell-based, human; conditions: 50 μM, 72 hours
Description: (§1) 1×10^4 MDA-MB-231 cells were treated with 50 μM P1, P2, P3 (synthesized in accordance with Example 5) or vehicle (water) for 72 hours. Cells were fixed with 3.7% formaldehyde and permeabilized with 2% Triton-X-100, then probed with a primary rabbit antibody to PD-L2, primary goat antibody to PD-L1 and primary mouse antibody to CSV, followed by the corresponding secondary antibody conjugated to anti-mouse Alexa-Fluor 568, anti-goat Alexa-Fluor 633 or anti-rabbit Alexa-Fluor 488. Confocal laser scanning microscopy was used to measure the TNFI and TCFI as described above. At least 20 individual cells were analyzed per sample.

MCF7 cells = conditions: MCF7 cells, 50 μM peptide, 48 hours
Summary of the method: (§2)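 FACS of adherent cells stained with anti-CD44, anti-CD24 and Hoechst 33342 gave the percentage of CD44hiCD24lo cells among Hoechst-negative live events, plus viability as live over single-cell events.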

H3K9me3 = assay: Immunofluorescence of H3K9me3 in MDA-MB-231 cells; format: cell-based, human; conditions: 50 μM, 72 hours
Description: (§3) 1×10^4 MDA-MB-231 cells were seeded onto coverslips in 12 well plates with DMEM media. Cells were treated with 50 μM P1, P2, P3 or P4 (synthesized in accordance with Example 5) or vehicle (water) for 72 hours. Cells were fixed with 3.7% formaldehyde and permeabilized with 2% Triton-X-100, then probed with primary mouse antibodies to CSV, DMNT1, H3K9me3 or 5-methylcytosine; primary goat antibodies to SNAI1, SETDB1 or ABCB5; or primary rabbit antibodies to PD-L1, EGFR, EHMT2; followed by the corresponding secondary antibody conjugated to anti-mouse Alexa-Fluor 568, anti-goat Alexa-Fluor 633 or anti-rabbit Alexa-Fluor 488. Confocal laser scanning microscopy was used to measure the TFI, TNFI and TCFI as described above. At least 20 individual cells were analyzed per sample.

induced MCF7 cells = assay: FACS CSC inhibition in induced MCF7 cells; format: cell-based, human; conditions: induced MCF7 cells (PMA/TGF-β), 50 μM peptide, 48 hours
Summary of the method: as §2

PD-L1 [2] = assay: Immunofluorescence (confocal) of PD-L1 in MDA-MB-231 cells, Example 6; format: cell-based, human; conditions: 50 μM, 72 hours
Description: (§4) Confocal laser scanning microscopy was employed to investigate the effect of P1, P2 and P3 (synthesized in accordance with Example 5) on the nuclear expression of PD-L1 and acetylated PD-L1 (PDL1-Ac) (FIG. 9).
(§5) 1×10^4 MDA-MB-231 cells were seeded onto coverslips in 12 well plates with DMEM media overnight. Cells were treated with 50 μM P1, P2, P3 or P4 or vehicle (water) for 72 hours. Treated cells were fixed with 3.7% formaldehyde, and then permeabilised by incubating with 1% Triton X-100 for 20 min. Cells were then probed with a rabbit anti-PD-L1 antibody (Santa Cruz Biotechnology) or rabbit anti-acetylated PD-L1 (generated as described above) and visualized with a donkey anti-rabbit AF 488. Cover slips were mounted on glass microscope slides with ProLong Diamond Antifade reagent (Life Technologies). Protein targets were localized using confocal laser scanning microscopy. Single 0.5 μm sections were obtained using a Leica DMI8 microscope using 100× oil immersion lens running LAX software. The final image was obtained by averaging four sequential images of the same section. Digital images were analyzed using ImageJ software as described above.

MDA-MB-231 cells = assay: FACS analysis of the cancer stem cell phenotype (CD44^high/CD24^low) in response to P1, P2 and P3; format: cell-based, human; conditions: 6.25-400 μM, 72 hours
Description: 5×10^4 MDA-MB-231 cells were seeded with 1 mL of complete DMEM in 12 well plates overnight. […] Samples were harvested by trypsinization followed by washing with DPBS containing 2% HI-FBS. FACS staining was performed using anti-human CD44-APC, anti-human CD24-PE, Hoechst and anti-human EpCAM antibody cocktails. Data was collected from a BD-FACSLSR-II flow cytometer. Treestar FlowJo was used for data analysis.

p300 = target: T1, p300 (Homo sapiens, UniProt Q09472); assay: Immunofluorescence of p300 localization in MDA-MB-231 cells; format: cell-based; conditions: 50 μM
T1 construct: endogenous in cells; host or cells: MDA-MB-231
T1 sequence (Q09472 whole entry): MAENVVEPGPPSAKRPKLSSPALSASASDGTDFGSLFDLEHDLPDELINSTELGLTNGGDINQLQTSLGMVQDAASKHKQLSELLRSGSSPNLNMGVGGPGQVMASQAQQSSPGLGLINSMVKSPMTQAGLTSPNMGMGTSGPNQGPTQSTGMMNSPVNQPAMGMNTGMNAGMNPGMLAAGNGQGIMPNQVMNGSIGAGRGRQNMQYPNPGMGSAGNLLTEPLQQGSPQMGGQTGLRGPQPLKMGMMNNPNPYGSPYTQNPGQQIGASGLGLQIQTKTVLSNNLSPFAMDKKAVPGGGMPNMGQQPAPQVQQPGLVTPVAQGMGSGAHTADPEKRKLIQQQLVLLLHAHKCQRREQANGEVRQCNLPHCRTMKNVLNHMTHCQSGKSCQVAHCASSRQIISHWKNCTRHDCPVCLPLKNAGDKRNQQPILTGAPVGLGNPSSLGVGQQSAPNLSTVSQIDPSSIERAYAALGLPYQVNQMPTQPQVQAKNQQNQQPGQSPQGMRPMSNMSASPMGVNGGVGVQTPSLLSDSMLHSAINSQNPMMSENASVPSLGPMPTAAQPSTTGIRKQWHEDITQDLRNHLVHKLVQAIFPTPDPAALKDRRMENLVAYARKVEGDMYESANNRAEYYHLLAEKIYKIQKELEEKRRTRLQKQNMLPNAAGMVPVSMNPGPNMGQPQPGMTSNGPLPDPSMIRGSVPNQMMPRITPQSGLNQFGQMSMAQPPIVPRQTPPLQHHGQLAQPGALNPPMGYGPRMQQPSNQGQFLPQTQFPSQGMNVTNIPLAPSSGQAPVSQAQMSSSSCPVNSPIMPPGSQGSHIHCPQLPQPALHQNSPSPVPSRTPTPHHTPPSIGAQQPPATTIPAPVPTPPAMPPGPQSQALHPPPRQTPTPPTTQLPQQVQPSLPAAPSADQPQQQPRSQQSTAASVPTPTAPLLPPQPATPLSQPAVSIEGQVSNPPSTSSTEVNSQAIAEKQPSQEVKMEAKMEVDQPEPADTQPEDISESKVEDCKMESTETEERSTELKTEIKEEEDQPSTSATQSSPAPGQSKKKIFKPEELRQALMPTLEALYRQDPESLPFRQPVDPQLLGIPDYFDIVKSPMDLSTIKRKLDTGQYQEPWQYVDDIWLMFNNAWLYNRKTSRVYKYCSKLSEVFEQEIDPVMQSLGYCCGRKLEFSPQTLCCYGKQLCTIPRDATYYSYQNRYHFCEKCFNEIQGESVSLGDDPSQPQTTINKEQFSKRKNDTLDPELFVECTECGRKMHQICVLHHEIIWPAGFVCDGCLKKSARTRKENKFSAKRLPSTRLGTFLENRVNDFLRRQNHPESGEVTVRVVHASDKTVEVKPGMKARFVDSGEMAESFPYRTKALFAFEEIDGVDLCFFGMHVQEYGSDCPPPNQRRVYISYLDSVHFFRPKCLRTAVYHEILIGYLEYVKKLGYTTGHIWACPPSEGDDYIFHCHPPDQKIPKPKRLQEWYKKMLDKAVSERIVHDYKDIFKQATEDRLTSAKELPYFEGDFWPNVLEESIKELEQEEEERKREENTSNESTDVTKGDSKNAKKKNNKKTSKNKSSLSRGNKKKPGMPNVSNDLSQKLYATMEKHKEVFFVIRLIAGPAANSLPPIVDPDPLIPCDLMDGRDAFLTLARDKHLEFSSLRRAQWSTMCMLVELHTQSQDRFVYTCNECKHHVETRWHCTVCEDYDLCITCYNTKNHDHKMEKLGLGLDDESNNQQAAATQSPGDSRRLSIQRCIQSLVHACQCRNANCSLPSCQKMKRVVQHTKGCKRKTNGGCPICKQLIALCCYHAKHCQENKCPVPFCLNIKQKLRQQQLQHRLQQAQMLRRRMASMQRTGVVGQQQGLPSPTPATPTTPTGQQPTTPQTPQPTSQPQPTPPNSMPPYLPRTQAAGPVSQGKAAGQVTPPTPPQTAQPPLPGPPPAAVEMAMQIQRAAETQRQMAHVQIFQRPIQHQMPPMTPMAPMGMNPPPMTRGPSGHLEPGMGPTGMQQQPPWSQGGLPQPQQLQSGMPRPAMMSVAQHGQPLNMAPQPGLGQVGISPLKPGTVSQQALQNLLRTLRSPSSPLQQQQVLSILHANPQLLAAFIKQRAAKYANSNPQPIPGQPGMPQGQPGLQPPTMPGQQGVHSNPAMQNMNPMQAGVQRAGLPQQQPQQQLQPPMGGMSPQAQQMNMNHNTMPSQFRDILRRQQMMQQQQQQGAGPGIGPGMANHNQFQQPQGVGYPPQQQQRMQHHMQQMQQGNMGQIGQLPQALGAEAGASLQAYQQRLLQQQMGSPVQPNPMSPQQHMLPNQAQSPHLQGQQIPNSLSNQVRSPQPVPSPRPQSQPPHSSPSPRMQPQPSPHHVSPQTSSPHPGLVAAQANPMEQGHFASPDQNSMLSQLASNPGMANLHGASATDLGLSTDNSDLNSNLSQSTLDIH
Description: The effect of P1, P2, P3 and P4 (synthesized in accordance with Example 5) on p300 localization was examined using confocal laser scanning microscopy. […] Cover slips were mounted on glass microscope slides with ProLong Diamond Antifade reagent (Life Technologies). Protein targets were localized by confocal laser scanning microscopy as described above. TNFI and PCC(r) were calculated using ImageJ software as previously described.

ABCBS = assay: Immunofluorescence of ABCBS in MDA-MB-231 cells; format: cell-based, human; conditions: 50 μM, 72 hours
Description: as §3

[3] = test system: PD-L1 acetylated at lysine 263; assay: Immunofluorescence (confocal) of acetylated PD-L1 in MDA-MB-231 cells, Example 6; format: cell-based, human; conditions: 50 μM, 72 hours
Description: as §4, §5

[4] = test system: cell surface vimentin (CSV); assay: Immunofluorescence of CSV in MDA-MB-231 cells, Example 9; format: cell-based, human; conditions: 50 μM, 72 hours
Description: as §3

PD-L2 = assay: Immunofluorescence of PD-L2 in MDA-MB-231 cells; format: cell-based, human; conditions: 50 μM, 72 hours, relative to the control
Description: as §1

[5] = test system: CD44^hiCD24^lo CSCs in MDA-MB-231 cells; assay: FACS analysis of CD44^hiCD24^lo cancer stem cells in MDA-MB-231 cells treated with P1 analogues; format: cell-based, human; conditions: 50 μM peptide, 48 hours
Description: Analogues of P1 (Table 6) were designed and synthesized in accordance with the procedure of Example 5. The ability of these analogues to inhibit cancer stem cells was determined using FACS analysis on MDA-MB-231 cells, which constitutively contain approximately 90% CD44^hiCD24^lo cancer stem cells, treated with the peptides.
Non-adherent cells were removed during the washing steps.

## CCCCCCCCCCCCCC(=O)N[C@@H](CC(C)C)C(=O)N[C@H](C(=O)N[C@@H](Cc1ccccc1)C(=O)N[C@H](C(=O)N[C@@H](Cc1ccccc1)C(=O)N[C@@H](CCCNC(=N)N)C(=O)N[C@@H](CC(C)C)C(=O)N[C@@H](CCCNC(=N)N)C(=O)N[C@@H](CCCCNC(C)=O)C(=O)NCC(=O)N[C@@H](CCCNC(=N)N)C(=O)N[C@@H](CCSC)C(=O)N[C@@H](CCSC)C(=O)N[C@@H](CC(=O)O)C(=O)N[C@H](C(=O)N[C@@H](CCCCN)C(=O)N[C@@H](CCCCN)C(N)=O)C(C)C)[C@@H](C)CC)[C@@H](C)O [Peptide P3, Myristoyl-LTFIFRLRK(Ac)GRMMDVKK-NH2] (Myristoyl-LTFIFRLRK(Ac)GRMMDVKK-NH2)
PD-L1 [1]
  nuclear localization of PD-L1: significantly inhibited
MCF7 cells
  % Viable Cells: 98.47%
  COI Count: 6007
  COI/Single Cell Count: 5039
  COI/Single Cells/Live Count: 4962
  Total Count: 10000
H3K9me3
  expression of H3K9me3: strongly inhibited
Induced MCF7 cells
  CSC inhibition (%): 53.67%
PD-L1 [2]
  nuclear expression of PD-L1: inhibited
MDA-MB-231 cells
  cancer stem cell phenotype (CD44^high/CD24^low): significantly inhibited; also recorded: greatest inhibition
p300
  p300 nuclear expression: significantly decreased; also recorded: greatest effect
ABCBS
  expression of ABCBS: strongly inhibited
[3]
  Fn/c of acetylated PD-L1: significantly reduced
  total nuclear fluorescence intensity (TNFI) of acetylated PD-L1: significantly reduced
[4]
  expression of CSV: uniformly inhibited
PD-L2
  PD-L2 nuclear localization: significantly inhibited
[5]
  Inhibition of CSCs (%) Repeat 1: 92.77%
  Inhibition of CSCs (%) Repeat 2: 91.10%
  Inhibition of CSCs (%) Repeat 3: 87.85%
[5]; n = 1
  CD44^hiCD24^lo CSCs (%): 8.04%
  COI, Live Single CD44^hiCD24^lo CSCs (Cell Count): 410
[5]; n = 3
  Average Inhibition of CSCs (%): 90.57%
  CD44^hiCD24^lo CSCs (%) Repeat 1: 6.48%
  CD44^hiCD24^lo CSCs (%) Repeat 2: 7.99%
  CD44^hiCD24^lo CSCs (%) Repeat 3: 10.90%
